In patent publication US20250353853A1, “FLAVIVIRUS INHIBITORS” (IRBM S.P.A., priority 2022, published 2025) one finds EC50 and IC50 data, which are given here for 26 molecules.

Assay [1] deals with ZIKV replicon in Vero cells. In words: ZIKV Replication Inhibition Assay (replicon, NanoLuc). The following applies: 72 h, read-out: Zika Replicon EC50. On the technique in general: A replicon is a self-replicating genome or part of one, used to study replication in cells.
Assay [2] deals with West Nile Virus (WNV) NS2B-NS3 protease (West Nile virus (WNV), UniProt P06935). The experiment in a line: WNV Protease Inhibition Assay. In kind it is biochemical. From the text: WNV Protease Inhibition Assay
Where [3] appears, read: 2 nM protease, 10 μM pERTKR-AMC substrate, read-out: WNV Protease IC50.

Where two headings read alike, the source gives them in different places. Some results are limits rather than exact numbers.

Chain of West Nile Virus (WNV) NS2B-NS3 protease (P06935 1502-1679 limits assumed): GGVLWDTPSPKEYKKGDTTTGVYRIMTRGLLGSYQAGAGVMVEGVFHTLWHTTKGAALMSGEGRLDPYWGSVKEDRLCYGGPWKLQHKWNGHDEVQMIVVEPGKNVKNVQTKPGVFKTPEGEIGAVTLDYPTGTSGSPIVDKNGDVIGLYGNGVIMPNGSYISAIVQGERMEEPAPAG
Chain of West Nile Virus (WNV) NS2B-NS3 protease (P06935 1371-1501 partner limits assumed): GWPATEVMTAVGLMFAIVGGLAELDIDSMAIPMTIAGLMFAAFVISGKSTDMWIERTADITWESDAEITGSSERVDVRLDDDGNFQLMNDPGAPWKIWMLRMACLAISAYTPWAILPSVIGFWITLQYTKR

As a reminder, the EC50 is the concentration needed to bring the measured effect to its halfway point. As usually defined, the IC50 is the concentration that inhibits the measured activity by half. Turning to `Cc1ncnc(C)c1-c1ccc([C@H](C)[n+]2cc([N-]C(=O)Nc3ccnc(C(F)(F)F)c3)on2)cc1` [Example 190, (S)-(3-(1-(4-(4,6-dimethylpyrimidin-5-yl)phenyl)ethyl)-1,2,3-oxadiazol-3-ium-5-yl)((2-(trifluoromethyl)pyridin-4-yl)carbamoyl)amide], in assay [1] (Zika virus, Vero), the EC50 lay in the range of 100 to 1000 nM. In assay [2], this molecule gave a 50% inhibitory concentration (IC50) of less than 100 nM.
Regarding `C[C@H](c1ccc(-c2cncnc2)cc1)[n+]1cc([N-]C(=O)Nc2cncc(C(F)(F)F)c2)on1` [Example 75, (R)-(3-(1-(4-(pyrimidin-5-yl)phenyl)ethyl)-1,2,3-oxadiazol-3-ium-5-yl)((5-(trifluoromethyl)pyridin-3-yl)carbamoyl)amide], the EC50 in assay [1] (Zika virus, Vero) was in the range of 100 to 1000 nM. Moreover, the IC50 in assay [2] (setting [3]) was less than 100 nM.
`Cc1ccncc1-c1ccc(C[n+]2cc([N-]C(=O)Nc3cncc(C(F)(F)F)c3)on2)nc1` [Example 149, (3-((4′-methyl-[3,3′-bipyridin]-6-yl)methyl)-1,2,3-oxadiazol-3-ium-5-yl)((5-(trifluoromethyl)pyridin-3-yl)carbamoyl)amide]: the concentration for a half-maximal effect (EC50) in assay [1] (Zika virus, Vero) was in the range of 100 to 1000 nM. In assay [2], this molecule registered a half-inhibitory concentration (IC50) of 100 to 1000 nM.
Regarding `Cc1noc(C)c1-c1ccc(C[n+]2cc([N-]C(=O)Nc3cnc(C(F)(F)F)s3)on2)nc1` [Example 154, (3-((5-(3,5-dimethylisoxazol-4-yl)pyridin-2-yl)methyl)-1,2,3-oxadiazol-3-ium-5-yl)((2-(trifluoromethyl)thiazol-5-yl)carbamoyl)amide], the 50% effective concentration (EC50) in assay [1] (Zika virus, Vero) is 100 to 1000 nM. For the same molecule, the IC50 in assay [2] was 100 to 1000 nM.
With `Cc1noc(C)c1-c1ccc([C@H](C)[n+]2cc([N-]C(=O)Nc3ccnc(C(F)(F)F)c3)on2)cc1` [Example 191, (S)-(3-(1-(4-(3,5-dimethylisoxazol-4-yl)phenyl)ethyl)-1,2,3-oxadiazol-3-ium-5-yl)((2-(trifluoromethyl)pyridin-4-yl)carbamoyl)amide], the concentration for a half-maximal effect (EC50) in assay [1] (Vero cell line with stable ZIKV replicon, Nano-Glo) was 100 to 1000 nM. Moreover, the IC50 in assay [2] (read-out: WNV Protease IC50, 2 nM protease, 10 μM pERTKR-AMC substrate) lay within 100 to 1000 nM.
In the case of `O=C([N-]c1c[n+](Cc2ccc(I)cc2)no1)Nc1cncc(C(F)(F)F)c1` [Example 55, (3-(4-iodobenzyl)-1,2,3-oxadiazol-3-ium-5-yl)((5-(trifluoromethyl)pyridin-3-yl)carbamoyl)amide], the EC50 in assay [1] (Zika virus, Vero) fell in the range of 100 to 1000 nM. The concentration for half-maximal inhibition (IC50) in assay [2] was in the range of 100 to 1000 nM.
With `Cc1noc(C)c1-c1ccc(C[n+]2cc([N-]C(=O)Nc3cncc(C4CC4)c3)on2)nc1` [Example 146, ((5-cyclopropylpyridin-3-yl)carbamoyl)(3-((5-(3,5-dimethylisoxazol-4-yl)pyridin-2-yl)methyl)-1,2,3-oxadiazol-3-ium-5-yl)amide], in assay [1] (Zika virus, Vero), the EC50 was 100 to 1000 nM. For the same molecule, the half-inhibitory concentration (IC50) in assay [2] is 100 to 1000 nM.
On to `Cc1ccnnc1-c1ccc(C[n+]2cc([N-]C(=O)Nc3cccc(C(F)(F)F)c3)on2)nc1` [Example 162, (3-((5-(4-methylpyridazin-3-yl)pyridin-2-yl)methyl)-1,2,3-oxadiazol-3-ium-5-yl)((3-(trifluoromethyl)phenyl)carbamoyl)amide], for which, in assay [1] (Zika virus, Vero), the concentration for a half-maximal effect (EC50) was less than 100 nM. Besides, in assay [2] (setting [3]), the IC50 was less than 100 nM.
For the molecule `COc1ncnc(C)c1-c1ccc(C[n+]2cc([N-]C(=O)Nc3cncc(C(F)(F)F)c3)on2)nc1` [Example 136, (3-((5-(4-methoxy-6-methylpyrimidin-5-yl)pyridin-2-yl)methyl)-1,2,3-oxadiazol-3-ium-5-yl)((5-(trifluoromethyl)pyridin-3-yl)carbamoyl)amide], the 50% effective concentration (EC50) in assay [1] (Zika virus, Vero) fell in the range of 100 to 1000 nM. The half-maximal inhibitory concentration (IC50) in assay [2] lay within 100 to 1000 nM.
Take `O=C([N-]c1c[n+](Cc2ccc(-c3cncnc3)cc2)no1)Nc1cncc(C(F)(F)F)c1` [Example 57, (3-(4-(pyrimidin-5-yl)benzyl)-1,2,3-oxadiazol-3-ium-5-yl)((5-(trifluoromethyl)pyridin-3-yl)carbamoyl)amide]: the 50% effective concentration (EC50) in assay [1] (Zika virus, Vero) is less than 100 nM. Besides, the IC50 in assay [2] (setting [3]) was less than 100 nM.
As to `Cc1ncncc1-c1ccc(C[n+]2cc([N-]C(=O)Nc3cccc(C(F)(F)F)c3)on2)cc1` [Example 60, (3-(4-(4-methylpyrimidin-5-yl)benzyl)-1,2,3-oxadiazol-3-ium-5-yl)((3-(trifluoromethyl)phenyl)carbamoyl)amide], in assay [1] (Zika virus, Vero), the half-maximal effective concentration (EC50) was less than 100 nM. The IC50 in assay [2] (setting [3]) was less than 100 nM.
As for `Cc1ncnc(C)c1-c1ccc(C[n+]2cc([N-]C(=O)Nc3cccc(C(F)(F)F)c3)on2)nn1` [Example 184, (3-((6-(4,6-dimethylpyrimidin-5-yl)pyridazin-3-yl)methyl)-1,2,3-oxadiazol-3-ium-5-yl)((3-(trifluoromethyl)phenyl)carbamoyl)amide], the EC50 in assay [1] (Zika virus, Vero) fell in the range of 100 to 1000 nM. In assay [2], this molecule returned an IC50 of 100 to 1000 nM.
For `COc1ncncc1-c1ccc(C[n+]2cc([N-]C(=O)Nc3cccc(C(F)(F)F)c3)on2)cc1` [Example 62, (3-(4-(4-methoxypyrimidin-5-yl)benzyl)-1,2,3-oxadiazol-3-ium-5-yl)((3-(trifluoromethyl)phenyl)carbamoyl)amide], in assay [1] (Zika virus, Vero), the EC50 lay within 100 to 1000 nM. In addition, the IC50 in assay [2] (setting [3]) was less than 100 nM.
On the same counts, the results for `COc1ncnc(C)c1-c1ccc(C[n+]2cc([N-]C(=O)Nc3cccc(C(F)(F)F)c3)on2)nc1` [Example 135, (3-((5-(4-methoxy-6-methylpyrimidin-5-yl)pyridin-2-yl)methyl)-1,2,3-oxadiazol-3-ium-5-yl)((3-(trifluoromethyl)phenyl)carbamoyl)amide] are less than 100 nM and less than 100 nM.
The corresponding values for `O=C([N-]c1c[n+](Cc2ccc(-c3c(Cl)ncnc3Cl)cn2)no1)Nc1cccc(C(F)(F)F)c1` [Example 180, (3-((5-(4,6-dichloropyrimidin-5-yl)pyridin-2-yl)methyl)-1,2,3-oxadiazol-3-ium-5-yl)((3-(trifluoromethyl)phenyl)carbamoyl)amide] are 1000 to 20000 nM and less than 100 nM.
`O=C([N-]c1c[n+](Cc2ccc(-c3cccnc3)cc2)no1)Nc1cccc(C(F)(F)F)c1` [Example 22, (3-(4-(pyridin-3-yl)benzyl)-1,2,3-oxadiazol-3-ium-5-yl)((3-(trifluoromethyl)phenyl)carbamoyl)amide]: the EC50 in assay [1] (Zika virus, Vero) was 100 to 1000 nM. In assay [2], this molecule gave a half-maximal inhibitory concentration (IC50) of 100 to 1000 nM.
As for `Cc1noc(C)c1-c1ccc(C[n+]2cc([N-]C(=O)Nc3cccc(C4CC4)c3)on2)nc1` [Example 142, ((3-cyclopropylphenyl)carbamoyl)(3-((5-(3,5-dimethylisoxazol-4-yl)pyridin-2-yl)methyl)-1,2,3-oxadiazol-3-ium-5-yl)amide], in assay [1] (Zika virus, Vero), the concentration for a half-maximal effect (EC50) lay within 100 to 1000 nM. The IC50 in assay [2] lay in the range of 100 to 1000 nM.
Regarding `O=C([N-]c1c[n+](Cc2ccc(-c3ccnc(O)c3)cc2)no1)Nc1cccc(C(F)(F)F)c1` [Example 64, (3-(4-(2-hydroxypyridin-4-yl)benzyl)-1,2,3-oxadiazol-3-ium-5-yl)((3-(trifluoromethyl)phenyl)carbamoyl)amide], the EC50 in assay [1] (Zika virus, Vero) lay within 100 to 1000 nM. Moreover, the IC50 in assay [2] (setting [3]) was less than 100 nM.
`Cc1ncnc(C)c1-c1ccc(C[n+]2cc([N-]C(=O)Nc3cncc(C(F)(F)F)c3)on2)cc1` [Example 187, (3-(4-(4,6-dimethylpyrimidin-5-yl)benzyl)-1,2,3-oxadiazol-3-ium-5-yl)((5-(trifluoromethyl)pyridin-3-yl)carbamoyl)amide]: the EC50 in assay [1] (Zika virus, Vero) was 1000 to 20000 nM. Also, the IC50 in assay [2] lay in the range of 100 to 1000 nM.
The corresponding values for `O=C([N-]c1c[n+](Cc2ccc(-c3ccncc3F)cn2)no1)Nc1cccc(C(F)(F)F)c1` [Example 164, (3-((3′-fluoro-[3,4′-bipyridin]-6-yl)methyl)-1,2,3-oxadiazol-3-ium-5-yl)((3-(trifluoromethyl)phenyl)carbamoyl)amide] are less than 100 nM and 100 to 1000 nM.
As to `O=C([N-]c1c[n+](Cc2ccc(-c3ccnnc3)cn2)no1)Nc1cccc(C(F)(F)F)c1` [Example 160, (3-((5-(pyridazin-4-yl)pyridin-2-yl)methyl)-1,2,3-oxadiazol-3-ium-5-yl)((3-(trifluoromethyl)phenyl)carbamoyl)amide], in assay [1] (Zika virus, Vero), the EC50 was 100 to 1000 nM. Besides, the IC50 in assay [2] (setting [3]) is less than 100 nM.
With `Cc1ncnc(C)c1-c1ccc(C[n+]2cc([N-]C(=O)Nc3ccnc(C(F)(F)F)c3)on2)cc1` [Example 185, (3-(4-(4,6-dimethylpyrimidin-5-yl)benzyl)-1,2,3-oxadiazol-3-ium-5-yl)((2-(trifluoromethyl)pyridin-4-yl)carbamoyl)amide], the EC50 in assay [1] (Zika virus, Vero) was less than 100 nM. Besides, the half-maximal inhibitory concentration (IC50) in assay [2] (setting [3]) was less than 100 nM.
In the case of `Cn1cc(-c2ccc(C[n+]3cc([N-]C(=O)Nc4cccc(C(F)(F)F)c4)on3)cc2)cn1` [Example 23, (3-(4-(1-methyl-1H-pyrazol-4-yl)benzyl)-1,2,3-oxadiazol-3-ium-5-yl)((3-(trifluoromethyl)phenyl)carbamoyl)amide], in assay [1] (Zika virus, Vero), the EC50 was in the range of 100 to 1000 nM. The 50% inhibitory concentration (IC50) in assay [2] was in the range of 100 to 1000 nM.
Regarding `COc1cc(-c2ccc(C[n+]3cc([N-]C(=O)Nc4cccc(C(F)(F)F)c4)on3)nc2)c(OC)nn1` [Example 181, (3-((5-(3,6-dimethoxypyridazin-4-yl)pyridin-2-yl)methyl)-1,2,3-oxadiazol-3-ium-5-yl)((3-(trifluoromethyl)phenyl)carbamoyl)amide], the EC50 in assay [1] (Zika virus, Vero) was less than 100 nM. This molecule registered an IC50 in assay [2] of 100 to 1000 nM.
The corresponding values for `Cc1ncnc(C)c1-c1ccc([C@@H](C)[n+]2cc(NC(=O)Nc3ccnc(C(F)(F)F)c3)on2)cc1` [Example 188, (R)-(3-(1-(4-(4,6-dimethylpyrimidin-5-yl)phenyl)ethyl)-1,2,3-oxadiazol-3-ium-5-yl)((2-(trifluoromethyl)pyridin-4-yl)carbamoyl)amide] are less than 100 nM and less than 100 nM.
The corresponding values for `Cc1ncn(C)c1-c1ccc(C[n+]2cc([N-]C(=O)Nc3cncc(C(F)(F)F)c3)on2)nc1` [Example 140, (3-((5-(1,4-dimethyl-1H-imidazol-5-yl)pyridin-2-yl)methyl)-1,2,3-oxadiazol-3-ium-5-yl)((5-(trifluoromethyl)pyridin-3-yl)carbamoyl)amide] are 1000 to 20000 nM and 100 to 1000 nM.
